In patent publication US10272088B2, “FAS inhibitors and methods associated therewith” (Wake Forest University Health Sciences, priority 2014, dated 2019):
“Also recorded” adds a separate entry of the source.

Assays:
[1] = Solubility/aggregation of ICG in PBS
FASN = FASN (Homo sapiens, UniProt P49327); assay: 14C-acetate incorporation study (FASN inhibition); details: PC3 cells
Description: Next, 1 μCi of ^14C-acetate will be added to the cells and be incubated for an additional 2 h. After washing cells with PBS/EDTA, the fatty acids will be extracted with chloroform/methanol (1:1) and quantified by scintillation counting using standard protocols.

cells = assay: Cytotoxicity after pre-incubation in PBS (entrapment/hydrolytic stability); format: cell-based; details: pre-incubated in PBS prior to incubating with cells
[2] = cited from earlier work
PC3 cells = assay: Seahorse Mito Stress test, oxygen consumption rate; details: Orlistat 50 μM, 12 hours
Description: PC3 cells were seeded into 24-well XF analysis microplates. The cells were the treated with vehicle (•) or Orlistat (50 μM. ? ) for 12 hours before analysis, according to Seahorse protocols. Oxygen consumption rate (OCR), a measure of mitochondrial capacity, was determined using a Seahorse Mito Stress test on a Seahorse XF24 extracellular flux analyzer.

[3] = test system: PC3 prostate, RKO colorectal, and MDA-MB-231 breast cancer cells; assay: In vitro cytotoxicity, WST-8 assay; details: Nano-Orl (PBA ligand) dosed equivalent to 25 m Orlistat, 24 h + 24 h
Description: Media alone or containing experimental or control agents was refreshed after 24 h and allowed to incubate for 24 additional hours. Cytotoxicity was then evaluated using the WST-8 assay (Dojindo, Rockville, Md.).

Chain of FASN (P49327 whole entry): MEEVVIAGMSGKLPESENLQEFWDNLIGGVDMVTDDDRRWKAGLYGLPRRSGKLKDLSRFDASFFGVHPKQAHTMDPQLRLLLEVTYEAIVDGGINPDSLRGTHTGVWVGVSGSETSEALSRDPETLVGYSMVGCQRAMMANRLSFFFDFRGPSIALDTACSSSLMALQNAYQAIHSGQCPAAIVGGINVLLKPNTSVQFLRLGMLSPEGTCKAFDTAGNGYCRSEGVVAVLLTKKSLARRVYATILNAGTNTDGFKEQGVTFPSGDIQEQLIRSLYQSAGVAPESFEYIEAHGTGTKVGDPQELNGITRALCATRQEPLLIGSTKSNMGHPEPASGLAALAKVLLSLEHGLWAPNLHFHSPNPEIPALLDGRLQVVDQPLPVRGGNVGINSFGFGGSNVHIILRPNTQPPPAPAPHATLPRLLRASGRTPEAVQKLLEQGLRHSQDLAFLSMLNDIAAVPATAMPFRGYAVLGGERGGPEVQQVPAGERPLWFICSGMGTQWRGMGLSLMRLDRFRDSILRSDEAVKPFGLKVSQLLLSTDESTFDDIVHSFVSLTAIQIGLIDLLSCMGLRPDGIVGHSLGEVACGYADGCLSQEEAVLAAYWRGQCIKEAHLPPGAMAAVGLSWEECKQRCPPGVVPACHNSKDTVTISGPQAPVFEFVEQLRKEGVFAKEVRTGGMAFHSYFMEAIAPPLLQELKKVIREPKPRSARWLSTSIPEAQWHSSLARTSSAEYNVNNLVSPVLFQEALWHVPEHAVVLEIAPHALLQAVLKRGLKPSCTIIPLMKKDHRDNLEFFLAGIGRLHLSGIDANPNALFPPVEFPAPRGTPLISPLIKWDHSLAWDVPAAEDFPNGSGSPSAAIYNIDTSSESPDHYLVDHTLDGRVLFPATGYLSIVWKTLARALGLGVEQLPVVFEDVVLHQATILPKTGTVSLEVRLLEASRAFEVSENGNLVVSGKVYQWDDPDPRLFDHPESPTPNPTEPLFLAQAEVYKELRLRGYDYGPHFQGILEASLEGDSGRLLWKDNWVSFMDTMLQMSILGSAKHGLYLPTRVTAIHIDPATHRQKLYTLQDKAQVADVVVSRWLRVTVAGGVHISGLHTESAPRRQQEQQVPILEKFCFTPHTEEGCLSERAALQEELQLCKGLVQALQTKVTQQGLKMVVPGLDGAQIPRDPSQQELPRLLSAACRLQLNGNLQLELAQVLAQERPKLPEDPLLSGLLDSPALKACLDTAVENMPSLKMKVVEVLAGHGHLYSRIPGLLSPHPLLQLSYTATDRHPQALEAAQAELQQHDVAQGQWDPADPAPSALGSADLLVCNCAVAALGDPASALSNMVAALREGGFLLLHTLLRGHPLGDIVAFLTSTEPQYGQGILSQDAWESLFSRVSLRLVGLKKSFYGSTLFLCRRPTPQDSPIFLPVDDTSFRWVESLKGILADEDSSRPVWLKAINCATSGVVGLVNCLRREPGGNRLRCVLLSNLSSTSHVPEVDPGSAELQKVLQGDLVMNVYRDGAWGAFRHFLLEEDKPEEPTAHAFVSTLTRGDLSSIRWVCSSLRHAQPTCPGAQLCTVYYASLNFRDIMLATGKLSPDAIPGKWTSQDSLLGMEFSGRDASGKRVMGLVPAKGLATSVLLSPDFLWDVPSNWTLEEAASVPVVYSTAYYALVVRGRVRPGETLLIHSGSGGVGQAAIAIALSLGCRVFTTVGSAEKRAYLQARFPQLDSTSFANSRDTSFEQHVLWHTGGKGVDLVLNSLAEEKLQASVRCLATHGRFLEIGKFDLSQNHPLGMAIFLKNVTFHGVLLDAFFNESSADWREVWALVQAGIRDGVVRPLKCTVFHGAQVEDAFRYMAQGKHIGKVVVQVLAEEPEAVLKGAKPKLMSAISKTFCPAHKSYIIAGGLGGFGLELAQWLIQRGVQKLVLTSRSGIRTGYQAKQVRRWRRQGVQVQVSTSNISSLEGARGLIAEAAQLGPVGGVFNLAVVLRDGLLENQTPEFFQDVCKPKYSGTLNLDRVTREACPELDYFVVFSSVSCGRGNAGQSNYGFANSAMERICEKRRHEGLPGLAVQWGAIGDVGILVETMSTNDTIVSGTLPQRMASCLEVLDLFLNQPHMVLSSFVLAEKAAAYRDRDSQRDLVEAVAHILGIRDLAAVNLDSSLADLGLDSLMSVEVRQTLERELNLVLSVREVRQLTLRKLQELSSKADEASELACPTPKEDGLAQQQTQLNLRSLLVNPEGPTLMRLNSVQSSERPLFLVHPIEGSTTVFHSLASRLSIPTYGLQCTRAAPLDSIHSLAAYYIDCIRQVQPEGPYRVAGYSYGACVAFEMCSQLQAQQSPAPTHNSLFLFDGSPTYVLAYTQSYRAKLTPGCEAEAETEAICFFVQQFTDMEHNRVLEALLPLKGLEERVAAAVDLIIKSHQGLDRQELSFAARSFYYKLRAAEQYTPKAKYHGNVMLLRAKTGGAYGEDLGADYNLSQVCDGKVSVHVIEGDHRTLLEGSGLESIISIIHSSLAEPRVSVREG

CC1(C)C(/C=C/C=C/C=C/C=C2\N(CCCCS(=O)(=O)O)c3ccc4ccccc4c3C2(C)C)=[N+](CCCCS(=O)(=O)[O-])c2ccc3ccccc3c21 [ICG, indocyanine green]
solubility in PBS [1]: not soluble in PBS; also recorded: rapidly aggregates in PBS

CCCCCCCCCCCCCCOc1ccc(C(=O)O)o1 [TOFA]
14C-acetate incorporation into lipids (FASN inhibition) (FASN): inhibited FASN mediated incorporation of acetate in lipids

CCCCCCCCCCC[C@@H](C[C@@H]1OC(=O)[C@H]1CCCCCC)OC(=O)[C@H](CC(C)C)NC=O [Orlistat]
cytotoxicity after pre-incubation in PBS (cells): rendered ineffective; also recorded: dramatically reduces its efficacy
tumor growth in vivo ([2]; compared to a sham control): inhibits tumor growth in vivo
bioavailability ([2]; in vivo): poor bioavailability
mitochondrial capacity (oxygen consumption rate) (PC3 cells): decreases mitochondrial capacity; also recorded: negatively impacts mitochondrial capacity
viability relative to the NP vehicle media control [3]: consistent with free Orlistat
